Source: patent US10662218B2, “Analogs of celastrol” (ERX Pharmaceuticals, Inc., priority 2015, dated 2020)
Converted amounts (≈) assume the structure as drawn. Where two headings read alike, the source gives them in different places.

Legend:
[1] = Compound solubility in PBS (pH 7.4), LC-MS/MS
Description: • Test concentration: 100 μM (1% of DMSO) • Test systems: PBS (pH 7.4) • Incubation condition: shaken (1000 rpm) for 1 h at room temperature • Sample size: Duplicates (n=2) • Bioanalytical method: LC-MS/MS

[2] = system: C57BL/6 Diet Induced Obese (DIO) mice; test: Oral (P.O.) administration study in DIO mice: in vivo activity, body weights; design: species or system mouse; conditions: for change in vivo at 2 mg/kg: Mus musculus, po, difference of group mean, read-out: Body weight, %-Diff
From the text: The purpose of this study was to assess test articles in the Diet Induced Obese (DIO) mouse.
Male C57BL/6 Diet Induced Obese (DIO) mice were received from Taconic. Animals were acclimated to housing conditions for at least 1 week prior to vehicle acclimation dosing. Animals were acclimated to oral gavage dosing with vehicle once daily for Days 11 through 14 of the predose phase.
At initiation of dosing, animals were 21 to 22 weeks old, and their body weights ranged from 29.8 to 40.1 g.
Dose formulations were administered by oral gavage once daily for 10 days at a dose volume of 2 mL/kg. Doses were based on the most recently recorded scheduled body weight.
Body weights were recorded daily on Days 11 through 14 of the predose phase. Body weights were collected for all animals daily during the dosing phase prior to dosing.
Descriptive statistics (n, mean, standard error of the mean, standard deviation) were completed. Additionally, one-way analysis of variance followed by Dunnett's post-hoc test were performed on body weight (cumulative body weight change), glucose (glucose percent change), and food consumption (cumulative food consumption). Area under the curve (for body weight, cumulative body weight change, daily body weight change, and food consumption) was computed for treatment groups. An appropriate comparison test, such as one-way analysis of variance and Dunnett's, was performed on the group means for the area under the curve computations. Any additional statistical analysis and interpretation of the results were the responsibility of the sponsor.

[3] = PBS (pH 7.4), pH 7.4, aqueous buffer, kinetic from dmso stock, Solubility (μM) Mean, Table 6-B, test concentration 100 μM (1% of DMSO), shaken (1000 rpm) 1 h at room temperature, n = 2
[4] = PBS (pH 7.4), pH 7.4, aqueous buffer, kinetic from dmso stock, Solubility (μM), Table 6-D
[5] = pH 7.4, aqueous buffer, kinetic from dmso stock, Solubility (μM) Mean, Table 6-B; PBS (pH 7.4), test concentration 100 μM (1% of DMSO), shaken (1000 rpm) 1 h at room temperature, n = 2
[6] = pH 7.4, aqueous buffer, kinetic from dmso stock, Solubility (μM), Table 6-D; PBS (pH 7.4)

In the case of `CC(=O)Oc1cc2c(c(C)c1OC(C)=O)C(SC(C)=O)C=C1[C@@]2(C)CC[C@@]2(C)[C@@H]3C[C@](C)(C(=O)O)CC[C@]3(C)CC[C@]12C` (stereo partly shown) [ERX1076], the solubility at 1 h [1, 3] was 6.44 µM (≈ 3.93 µg/mL) and the solubility at 1 h [1, 4] was 6.43 µM (≈ 3.93 µg/mL).

For `CC1=C(O)C(=O)C=C2C1=CC=C1[C@@]2(C)CC[C@@]2(C)[C@@H]3C[C@](C)(C(=O)N(C)C)CC[C@]3(C)CC[C@]12C` [ERX1008], the solubility [1, 5] was 0.08 µM (≈ 0.0382 µg/mL), the solubility [1, 6] was 0.0841 µM (≈ 0.0402 µg/mL) and the “cumulative body weight change” value ([2]; 2 mg/kg oral gavage once daily for 10 days, compared with controls) was “statistically significant decreases”.

For `CC1=C(O)C(=O)C=C2C1=CC=C1[C@@]2(C)CC[C@@]2(C)[C@@H]3C[C@](C)(C(=O)O)CC[C@]3(C)CC[C@]12C` [ERX1000], the solubility [1, 5] was 3.89 µM (≈ 1.75 µg/mL), the solubility [1, 6] was 3.89 µM (≈ 1.75 µg/mL) and the “Body weight %-Diff” value ([2]; 2 mg/kg oral gavage once daily, dosing phase Day 1) was 0%. For the same compound, the “Body weight, Mean” value ([2]; 2 mg/kg oral gavage once daily, dosing phase Day 1, N 5) was 34.2 g, the “Body weight %-Diff” value ([2]; 2 mg/kg oral gavage once daily, dosing phase Day 2) was −1% and the “Body weight, Mean” value ([2]; 2 mg/kg oral gavage once daily, dosing phase Day 2, N 5) was 34.0 g. For the same compound, the “Body weight %-Diff” value ([2]; 2 mg/kg oral gavage once daily, dosing phase Day 3) was −2%, the “Body weight, Mean” value ([2]; 2 mg/kg oral gavage once daily, dosing phase Day 3, N 5) was 33.1 g and the “Body weight %-Diff” value ([2]; 2 mg/kg oral gavage once daily, dosing phase Day 4) was −3%. The “Body weight, Mean” value ([2]; 2 mg/kg oral gavage once daily, dosing phase Day 4, N 5) was 32.5 g, the “Body weight %-Diff” value ([2]; 2 mg/kg oral gavage once daily, dosing phase Day 5) was −5% and the “Body weight, Mean” value ([2]; 2 mg/kg oral gavage once daily, dosing phase Day 5, N 5) was 32.1 g. For the same compound, the “Body weight %-Diff” value ([2]; 2 mg/kg oral gavage once daily, dosing phase Day 6) was −6%, the “Body weight, Mean” value ([2]; 2 mg/kg oral gavage once daily, dosing phase Day 6, N 5) was 31.4 g and the “Body weight, Mean” value ([2]; Day 7, DSNG phase, 2 mg/kg, male, N=5) was 30.6 g. For the same compound, the “Body weight, Mean” value ([2]; Day 8, DSNG phase, 2 mg/kg, male, N=5) was 30.4 g, the “Body weight, Mean” value ([2]; Day 9, DSNG phase, 2 mg/kg, male, N=5) was 30.3 g and the “Body weight, Mean” value ([2]; Day 10, DSNG phase, 2 mg/kg, male, N=5) was 30.0 g. For the same compound, the “Body weight, Mean” value ([2]; Day 11, DSNG phase, 2 mg/kg, male, N=5) was 29.1 g, the change in vivo at 2 mg/kg ([2]; 168 h, Day 7, DSNG phase, 2 mg/kg, male) was -9% and the change in vivo at 2 mg/kg ([2]; 192 h, Day 8, DSNG phase, 2 mg/kg, male) was -10%. The change in vivo at 2 mg/kg ([2]; 216 h, Day 9, DSNG phase, 2 mg/kg, male) was -9%, the change in vivo at 2 mg/kg ([2]; 240 h, Day 10, DSNG phase, 2 mg/kg, male) was -10% and the change in vivo at 2 mg/kg ([2]; 264 h, Day 11, DSNG phase, 2 mg/kg, male) was -15%.

For `CCCOC1=C(C)C2=CC=C3[C@@](C)(CC[C@@]4(C)[C@@H]5C[C@](C)(C(N)=O)CC[C@]5(C)CC[C@]34C)C2=CC1=O` [ERX1121], the solubility at 1 h [1, 3] was 1.55 µM (≈ 0.762 µg/mL) and the solubility at 1 h [1, 4] was 1.55 µM (≈ 0.762 µg/mL).

`CC1=C(O)C(=O)C=C2C1=CC=C1[C@@]2(C)CC[C@@]2(C)[C@@H]3C[C@](C)(CN4CCOCC4)CC[C@]3(C)CC[C@]12C` [ERX1116] showed a solubility at 1 h [1, 3] of 0.47 µM (≈ 0.238 µg/mL) and a solubility at 1 h [1, 4] of 0.47 µM (≈ 0.238 µg/mL).

In the case of `CC(=O)N[C@]1(C)CC[C@]2(C)CC[C@]3(C)C4=CC(SC(=O)c5ccccc5)c5c(cc(OC(C)=O)c(OC(C)=O)c5C)[C@]4(C)CC[C@@]3(C)[C@@H]2C1` (stereo partly shown) [ERX1173], the solubility at 1 h ([1]; PBS (pH 7.4), pH 7.4, aqueous buffer, kinetic from dmso stock, Solubility (μM) Mean, Table 6-C, test concentration 100 μM (1% of DMSO), shaken (1000 rpm) 1 h at room temperature, n = 2) was 1.74 µM (≈ 1.19 µg/mL).

In the case of `COC(=O)[C@]1(C)CC[C@]2(C)CC[C@]3(C)C4=CC=C5C(=CC(=O)C(O)=C5C)[C@]4(C)CC[C@@]3(C)[C@@H]2C1` [ERX1074], the solubility at 1 h [1, 5] was 4.19 µM (≈ 1.95 µg/mL) and the solubility at 1 h [1, 6] was 4.19 µM (≈ 1.95 µg/mL).

`CC1=C(O)C(=O)C=C2C1=CC=C1[C@@]2(C)CC[C@@]2(C)[C@@H]3C[C@](C)(CO)CC[C@]3(C)CC[C@]12C` [ERX1010] showed a solubility [1, 5] of 0.64 µM (≈ 0.279 µg/mL) and a solubility [1, 6] of 0.644 µM (≈ 0.281 µg/mL).

`C=CCOC1=C(C)C2=CC=C3[C@@](C)(CC[C@@]4(C)[C@@H]5C[C@](C)(C(N)=O)CC[C@]5(C)CC[C@]34C)C2=CC1=O` [ERX1124] showed a solubility at 1 h [1, 3] of 1.04 µM (≈ 0.509 µg/mL) and a solubility at 1 h [1, 4] of 1.03 µM (≈ 0.507 µg/mL).
